In paper PMC7180948, “New Insights into 4-Anilinoquinazolines as Inhibitors of Cardiac Troponin I–Interacting Kinase (TNNi3K)” (Molecules, 2020):

Experiments:
Experiment in all cases: biochemical
Set-up in all cases: KINOMEscan competition binding panel (Eurofins DiscoverX), single concentration, % inhibition
[1] = molecular target: ALK(L1196M) (Homo sapiens, UniProt Q9UM73, L1196M); settings: read-out: 7 at 1 µM % inhibition
In short: (§1)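 KINOMEscan binding panel of >400 kinases, run by Eurofins DiscoverX, with compounds tested at a single concentration of 1 µM.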

[2] = molecular target: CDK2 (Homo sapiens, UniProt P24941); settings: read-out: 7 at 1 µM % inhibition
In short: as §1

[3] = molecular target: CDK5 (Homo sapiens, UniProt Q00535); settings: read-out: 7 at 1 µM % inhibition
In short: as §1

[4] = molecular target: CSF1R-autoinhibited (Homo sapiens, UniProt P07333); settings: read-out: 7 at 1 µM % inhibition
In short: as §1

[5] = molecular target: CSK (Homo sapiens, UniProt P41240); settings: read-out: 7 at 1 µM % inhibition
In short: as §1

[6] = molecular target: CSNK2A1 (Homo sapiens, UniProt P68400); settings: read-out: 7 at 1 µM % inhibition
In short: as §1

[7] = molecular target: DDR1 (Homo sapiens, UniProt Q08345); settings: read-out: 7 at 1 µM % inhibition
In short: as §1

[8] = molecular target: T1, DRAK1 (Homo sapiens, UniProt Q9UEE5); settings: read-out: 7 at 1 µM % inhibition
T1 construct: gene STK17A
In short: as §1

[9] = molecular target: DYRK2 (Homo sapiens, UniProt Q92630); settings: read-out: 7 at 1 µM % inhibition
In short: as §1

[10] = molecular target: EGFR(E746-A750del) (Homo sapiens, UniProt P00533, DEL746-750); settings: read-out: 7 at 1 µM % inhibition
In short: as §1

[11] = molecular target: EPHB4 (Homo sapiens, UniProt P54760); settings: read-out: 7 at 1 µM % inhibition
In short: as §1

[12] = molecular target: FLT3(D835H) (Homo sapiens, UniProt P36888, D835H); settings: read-out: 7 at 1 µM % inhibition
In short: as §1

[13] = molecular target: LYN (Homo sapiens, UniProt P07948); settings: read-out: 7 at 1 µM % inhibition
In short: as §1

[14] = molecular target: NLK (Homo sapiens, UniProt Q9UBE8); settings: read-out: 7 at 1 µM % inhibition
In short: as §1

[15] = molecular target: T2, PFCDPK1(P.falciparum) (Plasmodium falciparum, UniProt P62344); settings: read-out: 7 at 1 µM % inhibition (pathogen kinases)
T2 construct: gene CDPK1
In short: as §1

[16] = molecular target: T3, PFTAIRE2 (Homo sapiens, UniProt Q96Q40); settings: read-out: 7 at 1 µM % inhibition
T3 construct: gene CDK15
In short: as §1

[17] = molecular target: PKN2 (Homo sapiens, UniProt Q16513); settings: read-out: 7 at 1 µM % inhibition
In short: as §1

[18] = molecular target: PRKCE (Homo sapiens, UniProt Q02156); settings: read-out: 7 at 1 µM % inhibition
In short: as §1

[19] = molecular target: PRKCQ (Homo sapiens, UniProt Q04759); settings: read-out: 7 at 1 µM % inhibition
In short: as §1

[20] = molecular target: RIPK1 (Homo sapiens, UniProt Q13546); settings: read-out: 7 at 1 µM % inhibition
In short: as §1

[21] = molecular target: TESK1 (Homo sapiens, UniProt Q15569); settings: read-out: 7 at 1 µM % inhibition
In short: as §1

[22] = molecular target: TNK1 (Homo sapiens, UniProt Q13470); settings: read-out: 7 at 1 µM % inhibition
In short: as §1

[23] = molecular target: WNK3 (Homo sapiens, UniProt Q9BYP7); settings: read-out: 7 at 1 µM % inhibition
In short: as §1

[24] = molecular target: ZAP70 (Homo sapiens, UniProt P43403); settings: read-out: 7 at 1 µM % inhibition
In short: as §1

Sequence of LYN (P07948 whole entry): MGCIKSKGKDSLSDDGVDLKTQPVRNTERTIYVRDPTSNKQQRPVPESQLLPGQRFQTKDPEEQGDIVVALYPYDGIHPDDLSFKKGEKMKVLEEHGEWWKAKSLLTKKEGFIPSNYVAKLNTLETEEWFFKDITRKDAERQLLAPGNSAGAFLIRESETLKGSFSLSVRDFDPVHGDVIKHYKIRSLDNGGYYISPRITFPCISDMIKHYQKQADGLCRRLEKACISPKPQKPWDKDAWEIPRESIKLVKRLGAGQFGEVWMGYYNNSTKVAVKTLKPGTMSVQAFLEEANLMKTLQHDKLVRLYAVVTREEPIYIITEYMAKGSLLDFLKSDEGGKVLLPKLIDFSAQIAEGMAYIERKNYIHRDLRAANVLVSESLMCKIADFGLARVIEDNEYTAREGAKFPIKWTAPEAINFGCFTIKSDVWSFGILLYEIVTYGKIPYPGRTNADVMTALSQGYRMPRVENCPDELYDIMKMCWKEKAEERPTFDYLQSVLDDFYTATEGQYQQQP
Sequence of PRKCE (Q02156 whole entry): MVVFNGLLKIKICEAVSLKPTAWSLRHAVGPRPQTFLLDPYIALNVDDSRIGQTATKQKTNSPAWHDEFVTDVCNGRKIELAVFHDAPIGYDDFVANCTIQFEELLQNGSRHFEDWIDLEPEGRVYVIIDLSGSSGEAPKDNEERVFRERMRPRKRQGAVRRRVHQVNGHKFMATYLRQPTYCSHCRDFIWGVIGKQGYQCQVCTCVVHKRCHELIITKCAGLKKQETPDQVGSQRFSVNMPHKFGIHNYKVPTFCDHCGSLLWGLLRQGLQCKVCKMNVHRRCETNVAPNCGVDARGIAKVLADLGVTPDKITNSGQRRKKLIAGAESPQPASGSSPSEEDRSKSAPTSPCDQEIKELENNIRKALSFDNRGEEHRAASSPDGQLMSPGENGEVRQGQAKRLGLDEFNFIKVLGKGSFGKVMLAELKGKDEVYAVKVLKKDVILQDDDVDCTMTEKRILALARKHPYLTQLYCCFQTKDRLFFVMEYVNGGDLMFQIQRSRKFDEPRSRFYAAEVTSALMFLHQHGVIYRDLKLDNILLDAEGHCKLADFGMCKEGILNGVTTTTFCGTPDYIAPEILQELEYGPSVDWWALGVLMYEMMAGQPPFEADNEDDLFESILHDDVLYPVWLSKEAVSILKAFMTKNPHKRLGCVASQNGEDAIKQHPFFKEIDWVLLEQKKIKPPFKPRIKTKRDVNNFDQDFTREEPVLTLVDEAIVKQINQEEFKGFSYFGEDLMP
Sequence of CSK (P41240 whole entry): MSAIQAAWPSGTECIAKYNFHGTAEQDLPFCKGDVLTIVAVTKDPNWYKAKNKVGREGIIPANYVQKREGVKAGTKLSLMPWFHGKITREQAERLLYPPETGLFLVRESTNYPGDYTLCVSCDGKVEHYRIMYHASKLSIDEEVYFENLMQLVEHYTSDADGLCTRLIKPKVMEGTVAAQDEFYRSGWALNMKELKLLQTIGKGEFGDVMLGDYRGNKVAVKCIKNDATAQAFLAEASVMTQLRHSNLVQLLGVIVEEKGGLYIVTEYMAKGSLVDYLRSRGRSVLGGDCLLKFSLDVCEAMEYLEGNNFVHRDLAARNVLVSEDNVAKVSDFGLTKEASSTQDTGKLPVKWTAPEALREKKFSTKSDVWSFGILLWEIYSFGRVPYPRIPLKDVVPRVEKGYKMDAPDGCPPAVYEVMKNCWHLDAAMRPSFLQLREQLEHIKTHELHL
Sequence of CSNK2A1 (P68400 whole entry): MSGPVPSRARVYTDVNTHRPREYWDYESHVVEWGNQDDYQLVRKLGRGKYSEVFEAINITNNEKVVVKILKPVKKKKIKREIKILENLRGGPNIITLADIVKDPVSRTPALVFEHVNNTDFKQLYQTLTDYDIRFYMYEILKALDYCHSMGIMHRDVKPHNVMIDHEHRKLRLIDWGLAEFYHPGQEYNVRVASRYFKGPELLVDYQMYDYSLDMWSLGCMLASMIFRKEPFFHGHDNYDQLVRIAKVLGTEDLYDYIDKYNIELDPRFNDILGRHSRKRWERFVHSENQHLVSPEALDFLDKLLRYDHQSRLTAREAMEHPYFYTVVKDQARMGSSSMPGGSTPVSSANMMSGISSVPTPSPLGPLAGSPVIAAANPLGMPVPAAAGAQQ
T3 sequence (Q96Q40 whole entry): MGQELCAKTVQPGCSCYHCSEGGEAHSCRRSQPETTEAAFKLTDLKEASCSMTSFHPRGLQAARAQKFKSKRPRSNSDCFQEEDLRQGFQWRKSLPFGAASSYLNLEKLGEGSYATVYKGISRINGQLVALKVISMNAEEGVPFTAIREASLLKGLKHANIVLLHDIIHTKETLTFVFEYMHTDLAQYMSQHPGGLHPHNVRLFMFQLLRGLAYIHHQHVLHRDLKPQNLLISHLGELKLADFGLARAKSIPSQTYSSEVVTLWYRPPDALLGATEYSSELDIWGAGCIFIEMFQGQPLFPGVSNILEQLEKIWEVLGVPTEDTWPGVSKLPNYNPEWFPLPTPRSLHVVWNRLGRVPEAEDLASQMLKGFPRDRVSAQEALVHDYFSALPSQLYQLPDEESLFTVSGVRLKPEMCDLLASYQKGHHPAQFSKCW
T1 sequence (Q9UEE5 whole entry): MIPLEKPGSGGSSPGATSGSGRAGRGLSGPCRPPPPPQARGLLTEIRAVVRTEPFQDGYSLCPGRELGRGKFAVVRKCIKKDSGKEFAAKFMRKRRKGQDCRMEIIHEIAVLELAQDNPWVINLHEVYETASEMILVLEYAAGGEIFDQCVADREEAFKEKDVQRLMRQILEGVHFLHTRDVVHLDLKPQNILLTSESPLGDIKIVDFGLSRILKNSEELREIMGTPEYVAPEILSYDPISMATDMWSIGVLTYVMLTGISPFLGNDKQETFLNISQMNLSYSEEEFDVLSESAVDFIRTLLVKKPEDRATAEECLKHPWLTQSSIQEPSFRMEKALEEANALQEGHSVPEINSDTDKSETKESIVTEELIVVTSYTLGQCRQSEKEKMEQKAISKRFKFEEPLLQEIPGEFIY
Sequence of DYRK2 (Q92630 whole entry): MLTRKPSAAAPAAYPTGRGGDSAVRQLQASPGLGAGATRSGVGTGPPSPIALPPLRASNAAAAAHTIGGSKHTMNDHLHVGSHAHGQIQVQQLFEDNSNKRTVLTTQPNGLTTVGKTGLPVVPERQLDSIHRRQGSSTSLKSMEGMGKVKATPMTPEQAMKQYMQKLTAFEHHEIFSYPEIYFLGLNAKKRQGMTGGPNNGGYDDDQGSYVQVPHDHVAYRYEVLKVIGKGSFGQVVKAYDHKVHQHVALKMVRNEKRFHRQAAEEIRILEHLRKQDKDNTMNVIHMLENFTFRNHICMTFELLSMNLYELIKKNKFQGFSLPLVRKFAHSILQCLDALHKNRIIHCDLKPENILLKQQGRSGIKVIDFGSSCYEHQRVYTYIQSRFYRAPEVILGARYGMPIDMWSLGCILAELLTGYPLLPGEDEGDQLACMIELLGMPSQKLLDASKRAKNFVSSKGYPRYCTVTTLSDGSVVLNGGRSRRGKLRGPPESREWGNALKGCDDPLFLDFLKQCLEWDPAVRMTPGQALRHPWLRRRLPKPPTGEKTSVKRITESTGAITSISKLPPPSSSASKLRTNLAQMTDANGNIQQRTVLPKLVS
Sequence of DDR1 (Q08345 whole entry): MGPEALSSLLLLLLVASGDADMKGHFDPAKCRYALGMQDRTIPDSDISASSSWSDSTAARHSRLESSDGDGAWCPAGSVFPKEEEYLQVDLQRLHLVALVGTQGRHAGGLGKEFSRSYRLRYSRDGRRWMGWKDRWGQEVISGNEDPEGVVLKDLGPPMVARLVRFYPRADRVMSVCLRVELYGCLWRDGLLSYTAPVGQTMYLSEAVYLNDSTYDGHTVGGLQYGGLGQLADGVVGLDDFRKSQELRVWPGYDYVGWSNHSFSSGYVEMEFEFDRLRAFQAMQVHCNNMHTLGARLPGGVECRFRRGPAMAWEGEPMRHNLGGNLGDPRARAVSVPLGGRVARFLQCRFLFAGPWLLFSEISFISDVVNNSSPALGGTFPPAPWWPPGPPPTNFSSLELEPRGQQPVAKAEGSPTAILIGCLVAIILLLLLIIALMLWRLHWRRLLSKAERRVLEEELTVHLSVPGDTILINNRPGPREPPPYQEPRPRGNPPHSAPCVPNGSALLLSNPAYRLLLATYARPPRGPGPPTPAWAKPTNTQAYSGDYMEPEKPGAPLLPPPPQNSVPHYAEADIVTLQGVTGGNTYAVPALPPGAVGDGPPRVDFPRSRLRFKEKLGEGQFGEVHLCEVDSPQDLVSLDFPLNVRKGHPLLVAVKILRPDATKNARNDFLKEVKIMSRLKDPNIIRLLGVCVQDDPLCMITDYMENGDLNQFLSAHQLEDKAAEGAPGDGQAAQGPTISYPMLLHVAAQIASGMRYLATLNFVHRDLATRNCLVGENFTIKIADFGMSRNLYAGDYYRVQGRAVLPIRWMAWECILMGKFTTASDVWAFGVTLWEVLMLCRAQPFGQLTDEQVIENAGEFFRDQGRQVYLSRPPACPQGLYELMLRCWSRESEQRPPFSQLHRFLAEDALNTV
Sequence of NLK (Q9UBE8 whole entry): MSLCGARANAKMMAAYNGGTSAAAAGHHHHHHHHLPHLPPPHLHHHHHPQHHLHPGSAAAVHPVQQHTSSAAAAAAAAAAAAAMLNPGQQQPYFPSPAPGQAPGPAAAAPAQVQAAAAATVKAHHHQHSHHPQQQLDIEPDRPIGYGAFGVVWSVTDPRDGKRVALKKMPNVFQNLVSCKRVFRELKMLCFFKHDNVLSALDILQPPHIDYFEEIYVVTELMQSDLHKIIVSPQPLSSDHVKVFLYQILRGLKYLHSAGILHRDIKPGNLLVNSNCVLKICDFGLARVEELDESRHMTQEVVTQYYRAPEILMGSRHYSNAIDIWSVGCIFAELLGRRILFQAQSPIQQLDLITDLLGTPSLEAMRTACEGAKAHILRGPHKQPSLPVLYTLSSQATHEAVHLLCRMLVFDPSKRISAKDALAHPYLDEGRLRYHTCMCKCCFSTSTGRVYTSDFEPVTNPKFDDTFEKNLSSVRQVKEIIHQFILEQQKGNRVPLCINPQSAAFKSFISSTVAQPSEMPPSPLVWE

With `CNS(=O)(=O)c1ccc(N(C)C)c(Nc2ncnc3cc(OC)c(OC)cc23)c1` [compound 7, 3-((6,7-dimethoxyquinazolin-4-yl)amino)-4-(dimethylamino)-N-methylbenzenesulfonamide] the inhibition at 1 µM [1] was 5%, the inhibition at 1 µM [2] was 0% and the inhibition at 1 µM [3] was 0%. The inhibition at 1 µM [4] was 39%, the inhibition at 1 µM [5] was 0% and the inhibition at 1 µM [6] was 0%. The inhibition at 1 µM [7] was 0%, the inhibition at 1 µM [8] was 0% and the inhibition at 1 µM [9] was 0%. It also gave an inhibition at 1 µM [10] of 25%, an inhibition at 1 µM [11] of 0% and an inhibition at 1 µM [12] of 20%. For the same compound, the inhibition at 1 µM [13] was 0%, the inhibition at 1 µM [14] was 24% and the inhibition at 1 µM [15] was 96.3%. It also gave an inhibition at 1 µM [16] of 0%, an inhibition at 1 µM [17] of 11% and an inhibition at 1 µM [18] of 0%. The inhibition at 1 µM [19] was 28%, the inhibition at 1 µM [20] was 0% and the inhibition at 1 µM [21] was 0%. It also gave an inhibition at 1 µM [22] of 37%, an inhibition at 1 µM [23] of 2% and an inhibition at 1 µM [24] of 53%.
